{"source": "patent US20180055370A1", "about": "“PHOTOACOUSTIC APPARATUS” (CANON KABUSHIKI KAISHA, priority 2015, published 2018)", "test": "Change over time of contrast agent concentration in circulating blood (blood sampling after administration)", "format": "in vivo, nude mice", "conditions": "threshold value of linearity R^2≧0.8", "description": "FIG. 2 is a graph illustrating contrast agent concentration change information obtained from a plurality of blood samplings of nude mice to which a contrast agent has been administered. The vertical axis represents the concentration of coloring material in blood, and the horizontal axis denotes the time elapsed since administration. The graph depicts specifically the change of the concentration after administration of contrast agent in an amount of 20 nanomoles of coloring material equivalent, to the caudal vein of the nude mice. […]\nIn a case where the contrast agent is administered into the circulating blood as one shot, the contrast agent concentration in the circulating blood decreases exponentially due to clearance with the passage of time, as illustrated in FIG. 2. […] When no signal is acquired within an appropriate lapse of time, therefore, the contrast agent in the circulating blood may in some instances fail to be quantified successfully. […] On the other hand, once a prolonged period of time has elapsed since administration, the contrast agent concentration in the circulating blood decreases, and becomes readily influenced by the sensitivity and/or measurement variability of the measuring instrument. […]", "data": [{"smiles": "CC1(C)C(/C=C/C=C/C=C/C=C2\\N(CCCCS(=O)(=O)O)c3ccc4ccccc4c3C2(C)C)=[N+](CCCCS(=O)(=O)[O-])c2ccc3ccccc3c21", "note": "[ICG, indocyanine green]", "values": [{"measurement": "TIME [hr] (measurement time range over which concentration in blood decreases linearly on a semi-logarithmic axis)", "result": "0.08~0.5 hr"}]}]}
